# Results reported in patent publication US20140137294A1, “GLUCOSINOLATE TRANSPORTER PROTEIN AND USES THEREOF” (UNIVERSITY OF COPENHAGEN, priority 2010, published 2014).
# Legend:
# AtGTR1 [1] = target: T1, AtGTR1 (Arabidopsis thaliana, UniProt Q944G5); assay: Substrate-induced currents in voltage-clamped Xenopus oocytes expressing AtGTR1; type: cell-based; conditions: AtGTR1
# T1 construct: A library of Arabidopsis transporters available as full length cDNAs from the RIKEN bioresource center; expressed in transfected cells; host or cells: Xenopus oocytes injected with in vitro transcribed cRNA
# T1 sequence (Q944G5 31-636 limits assumed): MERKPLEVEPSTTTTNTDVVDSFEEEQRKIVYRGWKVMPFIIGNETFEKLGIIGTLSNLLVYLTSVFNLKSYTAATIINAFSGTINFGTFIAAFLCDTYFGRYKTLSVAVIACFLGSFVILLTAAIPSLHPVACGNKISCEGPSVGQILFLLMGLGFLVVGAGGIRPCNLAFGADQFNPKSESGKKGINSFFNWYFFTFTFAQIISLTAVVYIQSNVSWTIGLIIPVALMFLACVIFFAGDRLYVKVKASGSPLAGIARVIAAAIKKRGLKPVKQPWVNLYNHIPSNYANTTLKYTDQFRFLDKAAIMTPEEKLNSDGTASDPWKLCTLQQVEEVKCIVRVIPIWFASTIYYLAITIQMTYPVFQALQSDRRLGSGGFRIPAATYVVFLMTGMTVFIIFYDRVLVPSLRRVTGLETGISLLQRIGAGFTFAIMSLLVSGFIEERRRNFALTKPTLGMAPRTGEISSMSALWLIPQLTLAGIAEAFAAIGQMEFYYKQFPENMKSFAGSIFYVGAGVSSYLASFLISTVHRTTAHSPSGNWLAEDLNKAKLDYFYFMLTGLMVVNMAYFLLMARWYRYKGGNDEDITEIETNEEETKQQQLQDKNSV
# AtGTR1 [2] = target: T1, AtGTR1; assay: Uptake of C14-labeled pOHBG in AtGTR1 expressing oocytes in presence of excess competitor; type: cell-based; conditions: 50× excess unlabeled competitor, AtGTR1, pH 5
# Protocol: FIG. 3: Biochemical analysis of AtGTR1 and 2 mediated GSL transport in Xenopus oocytes. A and B, pH dependence of AtGTR-mediated GSL transport. A, AtGTR2 mediated 4-MTB uptake measured by LC-MS analysis of oocyte extracts, n=3 oocytes. B, AtGTR1 currents induced by 1 mM 4-MTB were measured at different membrane potentials at pH 5 ([…]), pH 6 (♦), and pH 7 (▴). Currents were normalized to the current induced at pH 5 at −60 mV, error bars are SD, n=4 oocytes. C and D, kinetic analysis of AtGTR-mediated glucosinolate transport. […]
# The substrate specificity investigations were extended to include substrates previously identified for the NRT/PTR transporter family namely di- and tripeptides and nitrate. […] However, perfusing with 1 mM NO3^− did result in currents but these amounted only to 1/10th of currents measured when perfusing with 100 μM 4-MTB (FIG. 3F). […]
# For assays with radiolabeled substrates, single oocytes were ruptured in 100 μl 10% SDS in 4 ml scintillation vials by shaking for 20-30 minutes. 2.5 ml EcoScint™ scintillation fluid (National Diagnostics) was added, and imported compounds quantified by scintillation counting. For assays with unlabeled substrates, oocyte extracts were analysed by LC-MS. Oocytes were analyzed in batches of 5 oocytes per repetition. […]
smiles,measurement,setting,value
"CSCCCC/C(=N/OS(=O)(=O)O)S[C@@H]1O[C@H](CO)[C@@H](O)[C@H](O)[C@H]1O [4-MTB, 4-methylthiobutyl glucosinolate]",inward current,"AtGTR1 [1]; 100 μM substrate, pH 5, voltage clamped at −50 mV",~30 nA
same,Km,"AtGTR1 [1]; pH 5, clamped at −60 mV, Michaelis-Menten",20 ± 1.2 µM
same,effect on uptake of 40 μM C14-labeled pOHBG,AtGTR1 [2],reduced the uptake of pOHBG to background levels
